Measured values: the OPERA property sets (Mansouri et al. 2018)

| logP | SMILES |
| --- | --- |
| 2.83 | CCCc1cc(=S)ss1 |
| 3.43 | S=c1cc(Cc2ccccc2)ss1 |
| 3.42 | CCCc1ssc(=S)c1C |
| 1.89 | Cc1cc(=S)ss1 |
| 2.31 | CCc1cc(=S)ss1 |
| 3.7 | CCCCc1cssc1=S |
| 2.24 | CCCc1cc(=O)ss1 |
| 2.38 | CCCc1cssc1=O |
| 3.39 | CCCc1c(C)ssc1=S |
| 1.69 | CCc1cc(=O)ss1 |
| 3.18 | CCCc1cssc1=S |
| 2.67 | CCc1cssc1=S |
| 4.06 | CCCCCc1cssc1=S |
| 2.96 | CCCc1c(C)ssc1=O |
| 3.76 | CCCc1ssc(=S)c1CC |

Continued, compound first:

| SMILES | logP |
| --- | --- |
| Cc1ssc(=S)c1Cc1ccccc1 | 3.78 |
| O=c1ccss1 | 0.82 |
| Cc1ssc(=S)c1C | 2.45 |
| Cc1ccc(-c2cc(=S)ss2)cc1 | 4.26 |
| O=c1ssc2ccccc12 | 2.73 |
| CCc1ssc(=O)c1-c1ccccc1 | 3.15 |
| S=c1ssc2c1CCC2 | 2.53 |
| COc1ccc(-c2cc(=S)ss2)cc1 | 3.82 |
| S=c1ssc2c1CCCCC2 | 3.27 |
| Cc1cc(=O)ss1 | 1.26 |
| S=c1ssc2c1CCCCCC2 | 3.75 |
| S=c1cc(-c2ccccc2)ss1 | 3.67 |
| CCc1ssc(=S)c1CC | 3.51 |
| O=c1sscc1-c1ccccc1 | 2.64 |
| COc1ccc(-c2ssc(=S)c2C)cc1 | 4.1 |
| S=c1sscc1-c1ccccc1 | 3.2 |

| SMILES | logP |
| --- | --- |
| Cc1ssc(=S)c1-c1ccccc1 | 3.17 |
| S=c1ccss1 | 1.58 |
| O=c1cc(-c2ccccc2)ss1 | 3.01 |
| Cc1c(-c2ccccc2)ssc1=S | 3.95 |
| Cc1cssc1=O | 1.33 |
| O=c1ssc2c1CCCC2 | 2.4 |
| CCc1ssc(=S)c1-c1ccccc1 | 3.52 |
| Cc1ssc(=O)c1C | 1.73 |
| Cc1ssc(=O)c1-c1ccccc1 | 2.93 |
| CCc1c(C)ssc1=S | 2.94 |
| S=c1ssc2ccccc12 | 3.57 |
| CCc1cssc1=O | 1.9 |
| CCc1ssc(=S)c1C | 2.95 |
| Cc1ccc(-c2cssc2=S)cc1 | 3.73 |
| CCc1ssc(=O)c1CC | 2.78 |
| Cc1cssc1=S | 2.18 |
